In brackets after ≈: the same amount, converted by molar mass.
Columns and labels:
[1] = system: production of TNF-α in rat PBMCs; experiment: Inhibition of TNF-α production in rat PBMCs (LPS/IFN-γ stimulated, ELISA); format: cell-based; settings: PBMC; for IC50: rat PBMCs, LPS + IFN-γ, 18 hours; for inhibition at 3 µg/mL: @ 3 μg/ml
Method: (§1) Compounds of this invention were evaluated for their ability to inhibit the production of TNF-α in stimulated immune cells. […] Compounds of the present invention were evaluated for their therapeutic activity in animal models for inflammatory or immunological disorders. Also compounds of this invention were assayed for their ability to inhibit PDE4 isozymes.
Inhibition of TNF-α Production in Rat PBMCs: Compounds of the present invention were evaluated for their ability to inhibit the production of TNF-α in rat peripheral blood mononuclear cells (PBMCs) as described in the literature. [Exp. Geront. vol 37, 235-247 (2002)] In brief, 6 ml rat blood drawn from the abdominal vein as treated with ACD (acid/citrate/dextrose) was carefully added in a tube containing 6 ml Ficoll 1077, and the tube was centrifuged for 30 min at 1500 rpm (415 G) at room temperature. The cell fraction (middle fraction) was suspended in a 50 ml tube containing phosphate buffered saline (PBS). The tube was centrifuged for 5 min at 2000 rpm (737 G). The resulting pellet was suspended in 6 ml PBS and 6 ml Ficoll 1077, and centrifuged for 30 min at 1500 rpm (415 G) at room temperature to remove remaining plasma. The cell fraction was suspended in PBS and centrifuged for 5 min at 2000 rpm. Such a washing was repeated twice. Then the collected cells were suspended in 10 ml RPMI-1640 containing 10% FBS and further diluted to contain 4×10^6 cells per ml. The cell suspension was dispensed into a 96-well plate at 100 μl per well, which was pre-supplemented with 1 μl of either DMSO (placebo) or a DMSO stock solution containing a designated concentration of a compound of this invention. The plate was cultured for an hour at 37° C. under 5% CO2 and 95% O2. To each well, was added 100 μl RPMI-1640 containing 0.1 μg/ml LPS, 5 U/ml IFN-γ, and 10% FBS. Then the plate was subjected to a culture for 18 hours at 37° C. under 5% CO2 and 95% O2. An aliquot of the supernatant from each well was subjected to an ELISA assay to determine the TNF-α level in the well.

[2] = system: production of TNF-α in human PBMCs; experiment: Inhibition of TNF-α production in human PBMCs (ELISA); format: cell-based; settings: PBMC
Method: as §1
Inhibition of TNF-α Production in Human PBMCs: Compounds of the present invention were evaluated for their ability to inhibit the production of TNF-α in human PBMCs as described in the literature. [J. Med. Chem. vol 39, 3238-3240 (1996)] Blood was freshly drawn from healthy human subjects as treated with ACD to isolate human PBMCs according to the procedure employed for rat PBMCs. The employed assay method for the ELISA against human TNF-α was essentially identical to that for the rat TNF-α ELISA assay.

[3] = system: production of TNF-α in mice stimulated with LPS; experiment: In vivo inhibition of TNF-α production in mice stimulated with LPS; settings: Mus musculus, 2 h, LPS i.p., plasma at hour 2, read-out: % Inhibition of in vivo TNF-α production @ dose; for inhibition in vivo at 3 mg/kg: 3 mg/kg oral gavage
Method: [J. Pharmacol. Exp. Therapeut. vol 279, 1453-1461 (1996)] In brief, either a compound of the instant invention with vehicle or vehicle only (5% Tween 80) was administered by oral gavage (10 ml/kg body weight) at hour 0 to mice (Balb/C or ICR, 25˜30 g) fasted overnight. The mice were subjected to a peritoneal injection with […] LPS per mouse at hour 0.5, and blood was drawn from the abdominal vein at hour 2 following euthanasia with CO2. Then plasma separated from the drawn blood by centrifugation was subjected to an ELISA assay to measure the level of TNF-α.

| SMILES | melting point [°C] | IC50 [1] [µg/mL] | other results |
| --- | --- | --- | --- |
| O=[N+]([O-])c1cccc(C2=C(C3CCCC3)CCC2=NO)c1 [Example 4, 3-cyclopentyl-2-(3-nitrophenyl)-2-cyclopenten-1-one oxime] | 162 to 163 |  |  |
| Cc1ccc(C2=C(C3CCCC3)CCC2=NO)cc1[N+](=O)[O-] [Example 5, 3-cyclopentyl-2-(4-methyl-3-nitrophenyl)-2-cyclopenten-1-one oxime] | 178 to 180 |  | inhibition at 0.3 µg/mL ([1]; Rattus norvegicus, @ 0.3 μg/ml): 66% |
| N#Cc1cccc(C2=C(C3CCCC3)CCC2=NO)c1 [Example 12, 2-(3-cyanophenyl)-3-cyclopentyl-2-cyclopenten-1-one oxime] | 180 to 182 | 0.1 | IC50 [2]: 0.16 µg/mL (≈ 0.601 µM) |
| N#Cc1cc(C2=C(C3CCCC3)CCC2=NO)ccc1F [Example 13, 2-(3-cyano-4-fluorophenyl)-3-cyclopentyl-2-cyclopenten-1-one oxime] | 167 to 168 | 0.4 | inhibition in vivo at 0.3 mg/kg ([3]; 0.3 mg/kg oral gavage): 70% |
| C=Cc1ccc(C2=C(C3CCCC3)CCC2=NO)cc1 [Example 18, 3-cyclopentyl-2-(4-vinylphenyl)-2-cyclopenten-1-one oxime] | 177 to 179 |  | inhibition at 3 µg/mL ([1]; Rattus norvegicus): 78% |
| ON=C1CCC(C2CCCC2)=C1c1cccc2c1oc1ccccc12 [Example 19, 3-cyclopentyl-2-(4-dibenzofuranyl)-2-cyclopenten-1-one oxime] | 195 to 200 | 1 |  |
| CS(=O)(=O)c1cccc(C2=C(C3CCCC3)CCC2=NO)c1 [Example 23, 3-cyclopentyl-2-(3-methylsulfonylphenyl)-2-cyclopenten-1-one oxime] | 164 to 165 | 1.2 |  |
| ON=C1CCC(C2CCCC2)=C1c1cccc(O)c1 [Example 24, 3-cyclopentyl-2-(3-hydroxyphenyl)-2-cyclopenten-1-one oxime] | 207 to 209 |  |  |
| OCc1cccc(C2=C(C3CCCC3)CCC2=NO)c1 [Example 25, 3-cyclopentyl-2-(3-hydroxymethylphenyl)-2-cyclopenten-1-one oxime] |  | 1.5 |  |
| OCc1ccc(C2=C(C3CCCC3)CCC2=NO)cc1 [Example 26, 3-cyclopentyl-2-(4-hydroxymethylphenyl)-2-cyclopenten-1-one oxime] | 187 to 190 |  |  |
| ON=C1CCC(C2CCCCC2)=C1c1ccc(F)cc1 [Example 27, 3-cyclohexyl-2-(4-fluorophenyl)-2-cyclopenten-1-one oxime] | 173 to 176 | 0.34 | inhibition in vivo at 3 mg/kg [3]: 87% |
| ON=C1CCC(C2CCCCC2)=C1c1ccc(F)c(F)c1 [Example 30, 3-cyclohexyl-2-(3,4-difluorophenyl)-2-cyclopenten-1-one oxime] |  | < 0.1 |  |
| O=[N+]([O-])c1cccc(C2=C(C3CCCCC3)CCC2=NO)c1 [Example 31, 3-cyclohexyl-2-(3-nitrophenyl)-2-cyclopenten-1-one oxime] | 201 to 202 |  |  |
| COc1cccc(C2=C(C3CCCCC3)CCC2=NO)c1 [Example 32, 3-cyclohexyl-2-(3-methoxyphenyl)-2-cyclopenten-1-one oxime] | 149 to 150 | 0.49 | inhibition in vivo at 3 mg/kg [3]: 92% |
| CCCCC1=C(c2ccc(F)cc2)C(=NO)CC1 [Example 33, 3-butyl-2-(4-fluorophenyl)-2-cyclopenten-1-one oxime] | 115 to 116 | 2 |  |
| CCCCC1=C(c2ccc(F)c(F)c2)C(=NO)CC1 [Example 34, 3-butyl-2-(3,4-difluorophenyl)-2-cyclopenten-1-one oxime] |  | 0.3 |  |
| CCCCC1=C(c2ccc(O)c(F)c2)C(=NO)CC1 [Example 41, 3-butyl-2-(3-fluoro-4-hydroxyphenyl)-2-cyclopenten-1-one oxime] | 141 to 147 |  |  |
| CCCCC1=C(c2cccc(C(F)(F)F)c2)C(=NO)CC1 [Example 58, 3-butyl-2-{3-(trifluoromethyl)phenyl}-2-cyclopenten-1-one oxime] | 65 to 67 |  | inhibition at 3 µg/mL ([1]; Rattus norvegicus): 59% |
| CCCCCC1=C(c2ccc(F)cc2)C(=NO)CC1 [Example 65, 2-(4-fluorophenyl)-3-pentyl-2-cyclopenten-1-one oxime] | 101 to 102 | ~1 | IC50 [2]: 1.2 µg/mL (≈ 4.59 µM) |
| CCCCCC1=C(c2ccccc2)C(=NO)CC1 [Example 66, 3-pentyl-2-phenyl-2-cyclopenten-1-one oxime] | 110 to 111 | 1 to 3 | inhibition in vivo at 3 mg/kg [3]: 45% |
| CCCCCC1=C(c2cccc([N+](=O)[O-])c2)C(=NO)CC1 [Example 71, 2-(3-nitrophenyl)-3-pentyl-2-cyclopenten-1-one oxime] | 79 to 80 |  |  |
| CCCCCC1=C(c2ccsc2)C(=NO)CC1 [Example 77, 3-pentyl-2-(3-thienyl)-2-cyclopenten-1-one oxime] | 105 to 106 | 2.8 |  |
| CCCC1=C(c2ccc(F)cc2)C(=NO)CC1 [Example 78, 2-(4-fluorophenyl)-3-propyl-2-cyclopenten-1-one oxime] | 165 to 166 | 0.62 |  |
| CCCC1=C(c2cccc([N+](=O)[O-])c2)C(=NO)CC1 [Example 80, 2-(3-nitrophenyl)-3-propyl-2-cyclopenten-1-one oxime] |  | 0.2 | inhibition in vivo at 3 mg/kg [3]: 95% |
| CCC1=C(c2ccc(F)cc2)C(=NO)CC1 [Example 81, 3-ethyl-2-(4-fluorophenyl)-2-cyclopenten-1-one oxime] | 168 to 169 | ~3 |  |
| CC1=C(c2ccc(F)cc2)C(=NO)CC1 [Example 83, 2-(4-fluorophenyl)-3-methyl-2-cyclopenten-1-one oxime] | 170 to 171 | ~10 |  |
| CC(C)CC1=C(c2ccc(F)cc2)C(=NO)CC1 [Example 85, 2-(4-fluorophenyl)-3-isobutyl-2-cyclopenten-1-one oxime] | 154 to 157 | 0.77 |  |
| CC(C)CC1=C(c2ccc(F)c(F)c2)C(=NO)CC1 [Example 86, 2-(3,4-difluorophenyl)-3-isobutyl-2-cyclopenten-1-one oxime] | 136 to 139 | 0.27 |  |
| CC(C)CC1=C(c2cccc(C#N)c2)C(=NO)CC1 [Example 89, 2-(3-cyanophenyl)-3-isobutyl-2-cyclopenten-1-one oxime] | 138 to 140 | 0.09 |  |
| CCCCCCCCCc1ccc(C2=C(CC(C)C)CCC2=NO)cc1F [Example 90, 2-(3-fluoro-4-n-nonylphenyl)-3-isobutyl-2-cyclopenten-1-one oxime] | 85 to 86 |  |  |
